Patent US20230278972A1, “SUBSTITUTED HALOALKYL SULFONANILIDE HERBICIDES” (FMC Corporation, priority 2020, published 2023)

Tests used:
Type in all cases: in vivo
[1] = test system: galium (catchweed bedstraw, Galium aparine); test: Test A1 postemergence, galium; settings: Postemergence
Outline: (§1)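 Herbicidal response was scored on plants treated either preemergence, by directed spray onto soil of a loam–sand blend after sowing, or postemergence on potted plants at the one- to two-leaf stage, 2–10 cm high. Test chemicals were carried in a non-phytotoxic solvent mix with surfactant.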

[2] = test system: soybean (Glycine max); test: Test A1 postemergence, soybean; settings: Postemergence
Outline: as §1

[3] = test system: blackgrass (Alopecurus myosuroides); test: Test A1 postemergence, blackgrass; settings: Postemergence, 0 to 100 scale (0 no effect, 100 complete control)
Outline: as §1

[4] = test system: Ryegrass, Italian (Italian ryegrass, Lolium multiflorum); test: Test A1 preemergence, Ryegrass, Italian
Outline: (§2)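 Test compounds were formulated in a non-phytotoxic solvent mixture containing a surfactant. For preemergence, seeds sown in a loam soil–sand blend received a directed soil spray. For postemergence, potted plants in the same soil, 2 to 10 cm tall at the one- to two-leaf stage, were sprayed.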

[5] = test system: soybean (Glycine max); test: Test A1 preemergence, soybean
Outline: as §2

[6] = test system: Ryegrass, Italian (Italian ryegrass, Lolium multiflorum); test: Test A1 postemergence, Ryegrass, Italian; settings: Postemergence
Outline: as §1

[7] = test system: Foxtail, Giant (giant foxtail, Setaria faberi); test: Test A1 postemergence, Foxtail, Giant; settings: Postemergence
Outline: as §1

[8] = test system: kochia (Bassia scoparia); test: Test A1 postemergence, kochia; settings: Postemergence
Outline: as §1

[9] = test system: corn (Zea mays); test: Test A1 postemergence, corn; settings: Postemergence
Outline: as §2

[10] = test system: Pigweed, Palmer (palmer amaranth, palmer pigweed, Amaranthus palmeri); test: Test A1 preemergence, Pigweed, Palmer
Outline: as §2

[11] = 31 g ai/ha, 0 to 100 scale (0 no effect, 100 complete control), 10 days
[12] = 31 g ai/ha, 0 to 100 scale (0 no effect, 100 complete control)
[13] = 125 g ai/ha, 0 to 100 scale, 0 no effect, 100 complete control

SMILES	Plant response rating, Galium [1, 11]	Plant response rating, Galium ([1]; 125 g ai/ha, 0 to 100 scale)	Plant response rating, Soybean [2, 11]	Plant response rating, Soybean ([2]; 125 g ai/ha, 0 to 100 scale)	Plant response rating, Blackgrass ([3]; 31 g ai/ha, 10 days)	Plant response rating, Blackgrass ([3]; 125 g ai/ha)	Plant response rating, Ryegrass, Italian [4, 12]	Plant response rating, Ryegrass, Italian [4, 13]	Plant response rating, Soybean [5, 12]	Plant response rating, Soybean [5, 13]	Plant response rating, Ryegrass, Italian [6, 11]	Plant response rating, Ryegrass, Italian ([6]; 125 g ai/ha, 0 to 100 scale)	Plant response rating, Foxtail, Giant [7, 11]	Plant response rating, Foxtail, Giant ([7]; 125 g ai/ha, 0 to 100 scale)	Plant response rating, Kochia [8, 11]	Plant response rating, Kochia ([8]; 125 g ai/ha, 0 to 100 scale)	Plant response rating, Corn [9, 11]	Plant response rating, Corn ([9]; 125 g ai/ha, 0 to 100 scale)	Plant response rating, Pigweed, Palmer [10, 12]	Plant response rating, Pigweed, Palmer [10, 13]
CCOC1CC(c2cc(NS(=O)(=O)C(F)(F)F)c(C)cc2C)=NO1 (centres unmarked) [Compound 318]	60	60	30	40	0	50	50	90	0	30	10	70	0	80	30	90	30	60	80	100
COCC1CC(c2cc(NS(=O)(=O)C(F)(F)F)c(C)cc2C)=NO1 (centres unmarked) [Compound 319]	40	70	20	50	0	10	50	90	20	30	30	50	40	90	40	80	10	80	70	80
Cc1c(C(=O)N(C)C)cc(NS(=O)(=O)C(F)(F)F)c(Cl)c1F [Compound 320]	70	90	20	70	40	0	90	90	20	40	0	40	0	40	30	70	0	0	50	100
Cc1c(C(=O)N2CCOCC2)cc(NS(=O)(=O)C(F)(F)F)c(Cl)c1F [Compound 321]	100	100	20	40	10	10	60	60	60	60	30	40	0	0	40	80	10	20	90	100
CCCCOC1CC(c2cc(NS(=O)(=O)C(F)(F)F)c(C)cc2C)=NO1 (centres unmarked) [Compound 323]	50	80	0	30	0	50	40	90	0	0	0	20	10	50	50	60	0	0	90	100
Cc1c(C(=O)N2CCOCC2)cc(N(COC(=O)C(C)(C)C)S(=O)(=O)C(F)(F)F)c(C)c1C [Compound 324, [[(Trifluoromethyl)sulfonyl][2,3,4-trimethyl-5-(4-morpholinylcarbonyl)phenyl]amino]methyl 2,2-dimethylpropanoate]	50	80	50	60	0	0	20	100	20	60	0	30	20	90	30	50	30	30	100	100
CCOC(=O)N(c1cc(C(=O)N2CCOCC2)c(C)c(C)c1C)S(=O)(=O)C(F)(F)F [Compound 325]	40	90	50	80	0	90	40	90	0	60	0	60	30	90	20	50	10	30	80	100
